Tested on: 422866-222-R5-J1-PDC complex spheroid viability
Test: Anticancer human tumor 422866-222-R5-J1-PDC patient-derived pancreatic adenocarcinoma cell line growth inhibition [POLQ]
Conditions: for IC50: curve of first compound; for viability, T/C: stronger effect = lower value
In short: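 PDC + HUVEC + MSC complex spheroids; POLQ inhibitors ± partner drugs; top conc. at/near clinical Cmax, else 10 microM (SN-38 1 microM), half-log dilutions; 37 degrees C, 5% CO2.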

[1] = second compound 0.0316 µM, first compound 0.0316 µM
[2] = second compound 0.0316 µM, first compound 0.1 µM
[3] = second compound 0.0316 µM, first compound 0.316 µM
[4] = second compound 0.0316 µM, first compound 1 µM
[5] = second compound 0.0316 µM, first compound 3.16 µM
[6] = second compound 0.0316 µM, first compound 10 µM
[7] = second compound 0.1 µM, first compound 0.0316 µM
[8] = second compound 0.1 µM, first compound 0.1 µM
[9] = second compound 0.1 µM, first compound 0.316 µM
[10] = second compound 0.1 µM, first compound 1 µM
[11] = second compound 0.1 µM, first compound 3.16 µM
[12] = second compound 0.1 µM, first compound 10 µM
[13] = second compound 0.316 µM, first compound 0.0316 µM
[14] = second compound 0.316 µM, first compound 0.1 µM
[15] = second compound 0.316 µM, first compound 0.316 µM
[16] = second compound 0.316 µM, first compound 1 µM
[17] = second compound 0.316 µM, first compound 3.16 µM
[18] = second compound 0.316 µM, first compound 10 µM
[19] = second compound 1 µM, first compound 0.0316 µM
[20] = second compound 1 µM, first compound 0.1 µM
[21] = second compound 1 µM, first compound 0.316 µM
[22] = second compound 1 µM, first compound 1 µM
[23] = second compound 1 µM, first compound 3.16 µM
[24] = second compound 1 µM, first compound 10 µM
[25] = second compound 3.16 µM, first compound 0.0316 µM
[26] = second compound 3.16 µM, first compound 0.1 µM
[27] = second compound 3.16 µM, first compound 0.316 µM
[28] = second compound 3.16 µM, first compound 1 µM
[29] = second compound 3.16 µM, first compound 3.16 µM
[30] = second compound 3.16 µM, first compound 10 µM
[31] = second compound 10 µM, first compound 0.0316 µM
[32] = second compound 10 µM, first compound 0.1 µM
[33] = second compound 10 µM, first compound 0.316 µM
[34] = second compound 10 µM, first compound 1 µM
[35] = second compound 10 µM, first compound 3.16 µM
[36] = second compound 10 µM, first compound 10 µM
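Further: spheroids exposed to compounds for one week before readout.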
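Wherever viability, T/C is given: percent of DMSO vehicle wells luminescence so 100% = untreated viability.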

O=C(c1cc(Cc2n[nH]c(=O)c3ccccc23)ccc1F)N1CCN(C(=O)C2CC2)CC1 + Nc1ccc(C#CCN(C(=O)Cc2ncc(C(F)(F)F)cc2C(F)(F)F)c2ccc(F)cc2)nn1 gave an IC50 (second compound 0.0316 µM) of over 10 µM, an IC50 (second compound 0.1 µM) of over 10 µM and an IC50 (second compound 0.316 µM) of over 10 µM. For the same molecule, the IC50 (second compound 1 µM) was over 10 µM, the IC50 (second compound 3.16 µM) was over 10 µM and the IC50 (second compound 10 µM) was over 10 µM. It also gave a viability, T/C [1] of 86.6%, a viability, T/C [2] of 109% and a viability, T/C [3] of 88.2%. The viability, T/C [4] was 97.9%, the viability, T/C [5] was 72.8% and the viability, T/C [6] was 73.6%. The viability, T/C [7] was 91.7%, the viability, T/C [8] was 95.8% and the viability, T/C [9] was 97.5%. For the same molecule, the viability, T/C [10] was 93.8%, the viability, T/C [11] was 80.2% and the viability, T/C [12] was 61.4%. For the same molecule, the viability, T/C [13] was 101%, the viability, T/C [14] was 103% and the viability, T/C [15] was 99.1%. The viability, T/C [16] was 102%, the viability, T/C [17] was 76.2% and the viability, T/C [18] was 65.8%. For the same molecule, the viability, T/C [19] was 105%, the viability, T/C [20] was 90.1% and the viability, T/C [21] was 105%. It also gave a viability, T/C [22] of 84.5%, a viability, T/C [23] of 70.2% and a viability, T/C [24] of 53.7%. It also gave a viability, T/C [25] of 112%, a viability, T/C [26] of 109% and a viability, T/C [27] of 111%. The viability, T/C [28] was 90.3%, the viability, T/C [29] was 84.2% and the viability, T/C [30] was 65.9%. The viability, T/C [31] was 96.8%, the viability, T/C [32] was 104% and the viability, T/C [33] was 131%. It also gave a viability, T/C [34] of 115%, a viability, T/C [35] of 91.9% and a viability, T/C [36] of 68.6%.
O=c1[nH]cc(F)c(=O)[nH]1 + Nc1ccc(C#CCN(C(=O)Cc2ncc(C(F)(F)F)cc2C(F)(F)F)c2ccc(F)cc2)nn1 gave an IC50 (second compound 0.0316 µM) of over 10 µM, an IC50 (second compound 0.1 µM) of over 10 µM and an IC50 (second compound 0.316 µM) of over 10 µM. For the same molecule, the IC50 (second compound 1 µM) was over 10 µM, the IC50 (second compound 3.16 µM) was over 10 µM and the IC50 (second compound 10 µM) was over 10 µM. For the same molecule, the viability, T/C [1] was 108%, the viability, T/C [2] was 102% and the viability, T/C [3] was 89.4%. It also gave a viability, T/C [4] of 88.2%, a viability, T/C [5] of 89.1% and a viability, T/C [6] of 79.3%. For the same molecule, the viability, T/C [7] was 113%, the viability, T/C [8] was 90.9% and the viability, T/C [9] was 92.4%. For the same molecule, the viability, T/C [10] was 96.2%, the viability, T/C [11] was 83.2% and the viability, T/C [12] was 76.7%. For the same molecule, the viability, T/C [13] was 99.2%, the viability, T/C [14] was 106% and the viability, T/C [15] was 100%. It also gave a viability, T/C [16] of 93.4%, a viability, T/C [17] of 75.9% and a viability, T/C [18] of 84.7%. The viability, T/C [19] was 101%, the viability, T/C [20] was 111% and the viability, T/C [21] was 108%. The viability, T/C [22] was 92.4%, the viability, T/C [23] was 90.1% and the viability, T/C [24] was 83.4%. It also gave a viability, T/C [25] of 95%, a viability, T/C [26] of 132% and a viability, T/C [27] of 102%. The viability, T/C [28] was 104%, the viability, T/C [29] was 88.3% and the viability, T/C [30] was 82.6%. The viability, T/C [31] was 101%, the viability, T/C [32] was 118% and the viability, T/C [33] was 97.1%. It also gave a viability, T/C [34] of 100%, a viability, T/C [35] of 78.3% and a viability, T/C [36] of 83.8%.
